Results from patent US6495348B1, “Mitomycin biosynthetic gene cluster” (priority 1993, dated 2002).

Key:
PJS103 = system: PJS103
Description: Construction of mct-mrd co-expression plasmid. […] The fragment contained the mrd gene under the control of the T7 promoter, including transcriptional terminator sequences (rrnB T1) upstream and downstream of mrd.
The cultures were grown overnight at 37° C. and colony-forming units (CFUS) were determined.
Co-expression of mct and mrd in E. coli. To address the notion that MRD and MCT proteins participate as components of a binding protein-dependent drug export system, the mct and mrd genes were co-expressed in E. coli.

S. lavendulae wild-type = assay: MC resistance of S. lavendulae, plate count; assay type: cell-based, Streptomyces lavendulae
Source text: To establish a physiological role for MCT in S. lavendulae, the corresponding gene (mct) was inactivated by insertion of the aphII gene from transposon Tn5 to give pDHS7704.

SMILES | resistance to mitomycin B (PJS103) | MC resistance level (S. lavendulae wild-type)
COC1=C(C)C(=O)C2=C(C1=O)[C@H](COC(N)=O)[C@@]1(O)[C@@H]3[C@H](CN21)N3C (some centres unmarked) [Mitomycin B, mitomycin B] | high-level resistance | 
CO[C@@]12[C@H](COC(N)=O)C3=C(C(=O)C(C)=C(N)C3=O)N1C[C@@H]1N[C@@H]12 [MC, mitomycin C] |  | > 150 µg/mL
